Results reported in patent US10183937B2, “1,3-thiazol-2-yl substituted benzamides” (BAYER AKTIENGESELLSCHAFT, priority 2014, dated 2019).

Columns and labels:
[1] = Human liver cytosol stability assay; assay type: in vitro ADME; conditions: 4 h incubation
Protocol: Human Liver Cytosol Stability Assay
Method description: Human liver cytosol (pooled, >30 male and female donors) was incubated with individual test compounds in order to compare the extent of depletion of test compound and formation of the respective oxidised metabolite.
An incubation volume of 1000 μL was used. The test compound was added from a stock solution in acetonitrile at 1 or 10 μM concentration in the incubation. Incubations were performed at 37° C. Reactions were stopped at 0 h and 4 h after incubation by addition of 100 μL acetonitrile to 250 μL of incubation mixture. Precipitated proteins were removed by centrifugation at approximately 3000 rpm. The supernatants were stored at approximately −20° C. until they were analysed. […]
Data analysis: The depletion of the test compound and formation of the corresponding metabolites were determined by decrease or increase of the corresponding peak area in the chromatogram after UV detection at approximately 300 nm 4 h after incubation compared to that at 0 h after incubation. […]

[2] = In vitro metabolic stability in liver microsomes (calculation of CL and Fmax); assay type: in vitro ADME, human; conditions: 1 μM, maximal oral bioavailability calculated from half-life
Protocol: In Vitro Metabolic Stability Assays Determination of In Vitro Metabolic Stability in Microsomes (Including Calculation of Hepatic In Vivo Blood Clearance (CL) and of Maximal Oral Bioavailability (Fmax))
The metabolic assay was started shortly afterwards by adding the test compound to the incubation at a final volume of 1 mL. Organic solvent in the incubations was limited to ≤0.01% dimethylsulfoxide (DMSO) and ≤1% acetonitrile. […] Samples were frozen at −20° C. overnight, subsequently centrifuged for 15 minutes at 3000 rpm and the supernatant was analyzed with an Agilent 1200 HPLC-system with LCMS/MS detection.
The half-life of a test compound was determined from the concentration-time plot. From the half-life (kel: slope of concentration-time plot; half-life=ln 2/kel) the intrinsic clearances were calculated. Together with the additional parameters liver blood flow, specific liver weight and microsomal protein content the hepatic in vivo blood clearance (CL) and the maximal oral bioavailability (Fmax) were calculated for the different species.
(§1) Metabolic instability is often the main clearance mechanism of xenobiotica leading to a high CL and low bioavailability which may eventually result in a short half-life and a low exposure after oral administration. Thus, reducing the susceptibility of metabolic degradation usually leads to a more favourable pharmacokinetic profile. When using liver microsomes as incubation matrix main phase I metabolic reactions, typically oxidoreductive reactions by cytochrome P450 enzymes and flavin mono-oxygenases (FMO) and hydrolytic reactions by esterases/amidases/epoxidhydrolases, are described. When the incubation of the test compound is performed in a hepatocyte matrix all potential hepatic metabolic processes (phase I and phase II) are covered.

[3] = system: rat hepatocytes; experiment: In vitro metabolic stability in rat hepatocytes; assay type: in vitro ADME, Han Wistar rats; conditions: 1 μM, maximal oral bioavailability calculated from half-life
Protocol: Determination of In Vitro Metabolic Stability in Rat Hepatocytes (Including Calculation of Hepatic In Vivo Blood Clearance (CL))
Hepatocytes from Han Wistar rats were isolated via a 2-step perfusion method. After perfusion, the liver was carefully removed from the rat: the liver capsule was opened and the hepatocytes were gently shaken out into a Petri dish with ice-cold Williams' medium E (WME). The resulting cell suspension was filtered through sterile gaze in 50 mL falcon tubes and centrifuged at 50×g for 3 min at room temperature. The cell pellet was resuspended in 30 mL WME and centrifuged through a Percoll® gradient for 2 times at 100×g. The hepatocytes were washed again with WME and resuspended in medium containing 5% FCS. Cell viability was determined by trypan blue exclusion. […] The test compound was added to a final concentration of 1 μM. […] Samples were frozen at −20° C. overnight, subsequently centrifuged for 15 minutes at 3000 rpm and the supernatant was analyzed with an Agilent 1200 HPLC-system with LCMS/MS detection.
The half-life of a test compound was determined from the concentration-time plot. From the half-life (kel: slope of concentration-time plot; half-life=ln 2/kel) the intrinsic clearances were calculated. Together with the additional parameters liver blood flow, amount of liver cells in vivo and in vitro.
as §1

[4] = system: vaginal hyperalgesia; experiment: Rat dyspareunia model (visceromotor response to vaginal distension); assay type: in vivo, Sprague Dawley rats; conditions: 15 mg/kg oral b.i.d. during 2 weeks
Text: The visceromotor response (VMR) to vaginal distension was used in conscious animals as an objective measure of vaginal sensitivity. […] To measure VMR response, 2 Teflon-coated wire electrodes were sutured in the external oblique abdominal muscle, and tunneled subcutaneously to be exteriorized at the base of the neck for future access. On the day of VMR assessment, a lubricated small balloon (1 cm length) was inserted into the mid-vaginal canal. The balloon catheter was secured to the base of the tail and connected to a volume controller/timing device (infusion pump) for balloon distension. The vaginal balloon was inflated to ramp intensities of distension (0.05 ml increments every 20 sec.) to a maximal volume of 0.8 ml. The electrodes were connected to an amplifier (Animal Bio Amp, ADInstruments), and the abdominal electromyographic signal was recorded using a data acquisition system (PowerLab, ADInstruments) for off-line analysis using LabChart version 7. The number of abdominal muscle contractions was counted manually for each 0.1 ml distension step, as an index of vaginal pain. […] All data were expressed as mean±standard deviation (s.d.), for the number (n) of measured rats per group. […] Planned comparison of means (matched-volume versus vehicle) was performed using a Bonferroni post hoc test, provided that a main effect was detected. […]

[5] = clinical PhII trials; attributed to blockade of P2X2/3 channels; cited from earlier work

Row | Test compound turnover after 4 h [1] [%] | Human liver microsome Fmax [2] [%] | Rat hepatocyte Fmax [3] [%] | Compound | Vaginal hyperalgesia compared to vehicle-treated animals [4] | taste side effect in treated subjects [5]
1 | 0.9 | 67 | 56 | Cc1cnc(-c2cc(O[C@H]3CCOC3)cc(C(=O)N[C@H](C)c3cnc(C(F)(F)F)nc3)c2)s1 [Example 26, 3-(5-Methyl-1,3-thiazol-2-yl)-5-[(3S)-tetrahydrofuran-3-yloxy]-N-{(1R)-1-[2-(trifluoromethyl)pyrimidin-5-yl]ethyl}benzamide] | – | –
2 | – | 74 | 51 | CCc1cnc(-c2cc(OC[C@H]3CN(C)CCO3)cc(C(=O)N[C@H](C)c3ccc(C(F)(F)F)nn3)c2)s1 [Example 419, 3-(5-ethyl-1,3-thiazol-2-yl)-5-{[(2R)-4-methyl-morpholin-2-yl]methoxy}-N-{(1R)-1-[6-(trifluoromethyl)pyridazin-3-yl]ethyl} benzamide] | – | –
3 | – | 100 | 53 | Cc1cnc(-c2cc(OC(C)C(C)O)cc(C(=O)N[C@H](C)c3cnc(C(F)(F)F)nc3)c2)s1 (single isomer, unassigned) [Example 163] | – | –
4 | – | 94 | 52 | Cc1cnc(-c2cc(OC(C)C(C)O)cc(C(=O)N[C@H](C)c3cnc(C(F)(F)F)nc3)c2)s1 (single isomer, unassigned) [Example 339] | – | –
5 | – | 74 | 43 | Cc1cnc(-c2cc(OC(C)C(C)O)cc(C(=O)N[C@H](C)c3ccc(C(F)(F)F)nn3)c2)s1 (single isomer, unassigned) [Example 183] | – | –
6 | 0.9 | 57 | 52 | Cc1cnc(-c2cc(O[C@@H]3CCOC3)cc(C(=O)N[C@H](C)c3cnc(C(F)(F)F)nc3)c2)s1 [Example 11, 3-(5-Methyl-1,3-thiazol-2-yl)-5-[(3R)-tetrahydrofuran-3-yloxy]-N-{(1R)-1-[2-(trifluoromethyl)pyrimidin-5-yl]ethyl}benzamide] | decreased vaginal hyperalgesia compared to vehicle-treated animals | –
7 | – | 90 | 64 | Cc1cnc(-c2cc(OC(C)C(C)O)cc(C(=O)N[C@H](C)c3cnc(C(F)(F)F)nc3)c2)s1 (single isomer, unassigned) [Example 340] | – | –
8 | – | – | – | COc1cc(C(C)C)c(Oc2cnc(N)nc2N)cc1S(N)(=O)=O [AF-219] | – | taste disturbances
